≈ marks a conversion by molar mass, not a printed value. Where “and” joins values, the source holds several entries; their conditions need not be identical. Equal entries are not always repeated. Blank lines part the entries; values can stand above or below the compound they belong to.
Experiments:
Assay in all cases: ≥ marks a high value that may be exact or a test limit, other limits are often not marked, values filed in µg/mL are converted to µM
Bacillus subtilis DELTA = test system: Bacillus subtilis DELTA
Candida parapsilosis = test system: Candida parapsilosis
[1] = test system: Escherichia coli DH5alpha
[2] = test system: Pseudomonas aeruginosa PAO1
[3] = test system: Zymomonas mobilis ATCC 10988
[4] = test system: Bacillus subtilis DSM 347
Escherichia coli BL21AI = test system: Escherichia coli BL21AI
Escherichia coli DC2 = test system: Escherichia coli DC2
[5] = test system: Escherichia coli DSM 1103
[6] = test system: Klebsiella pneumoniae DSM 681
[7] = test system: Micrococcus luteus ATCC 10240
[8] = test system: Acinetobacter baumannii 97830
[9] = test system: Acinetobacter baumannii 9931
[10] = test system: Acinetobacter baumannii ATCC 19606
[11] = test system: Bacillus subtilis ATCC 23857
Escherichia coli 780 = test system: Escherichia coli 780
Escherichia coli 804 = test system: Escherichia coli 804
[12] = test system: Escherichia coli ATCC 25922
[13] = test system: Klebsiella pneumoniae ATCC 700603
[14] = test system: Pseudomonas aeruginosa 50
[15] = test system: Pseudomonas aeruginosa 73
[16] = test system: Pseudomonas aeruginosa ATCC 27853
[17] = test system: Pseudomonas aeruginosa ATCC 9027
[18] = test system: Staphylococcus aureus 113
Staphylococcus aureus 75 = test system: Staphylococcus aureus 75
[19] = test system: Staphylococcus aureus ATCC 25923
[20] = test system: Staphylococcus aureus ATCC 29213
[21] = test system: Staphylococcus epidermidis ATCC 12228
Escherichia coli UB1005 = test system: Escherichia coli UB1005
[22] = test system: Pseudomonas aeruginosa H374
[23] = test system: Pseudomonas aeruginosa H547
[24] = test system: Pseudomonas aeruginosa H744
[25] = test system: Pseudomonas aeruginosa K799
[26] = test system: Pseudomonas aeruginosa Z61
[27] = test system: Salmonella enterica subsp. enterica serovar Typhimurium ATCC 14028s
[28] = test system: Bacillus licheniformis X39
[29] = test system: Psychrobacter faecalis X29
[30] = test system: Rhodococcus rhodochrous X15
Serratia rubidaea X01 = test system: Serratia rubidaea X01
[31] = test system: Staphylococcus aureus ATCC 2592
[32] = test system: Staphylococcus carnosus KHS

SMILES: CC[C@H](C)[C@H](NC(=O)[C@H](CCCCN)NC(=O)[C@H](CC(C)C)NC(=O)[C@H](CC(C)C)NC(=O)CN)C(=O)N[C@H](C(=O)N[C@@H](CCCCN)C(=O)N[C@@H](CCCCN)C(=O)N[C@@H](CC(C)C)C(=O)N[C@@H](CC(C)C)C(N)=O)[C@@H](C)CC [GLLKIIKKLL]
MIC (Bacillus subtilis DELTA): 6.15 µM (≈ 6.99 µg/mL)
MIC (Candida parapsilosis): 6.15 µM (≈ 6.99 µg/mL)
MIC [1]: ≥ 87.8 µM
MIC [2]: 2.63 µM (≈ 3 µg/mL)
MIC [3]: 13.2 µM (≈ 15 µg/mL)

SMILES: NCC(=O)N[C@@H](CCCN=C(N)N)C(=O)N[C@@H](Cc1c[nH]c2ccccc12)C(=O)N[C@@H](Cc1c[nH]c2ccccc12)C(=O)N[C@@H](Cc1c[nH]c2ccccc12)C(=O)N[C@@H](CCCN=C(N)N)C(=O)NCC(N)=O [GRWWWRG]
MIC [8]: ≥ 128 µM
MIC [9]: ≥ 128 µM
MIC [10]: > 128 µM
MIC [11]: 16 µM (≈ 16 µg/mL)
MIC (Escherichia coli 780): ≥ 128 µM
MIC (Escherichia coli 804): ≥ 128 µM
MIC [12]: > 128 µM
MIC [13]: > 128 µM
MIC [14]: ≥ 128 µM
MIC [15]: ≥ 128 µM
MIC [16]: > 128 µM
MIC [17]: > 128 µM
MIC [18]: ≥ 64 µM
MIC (Staphylococcus aureus 75): ≥ 64 µM
MIC [19]: 64 µM and 128 µM
MIC [20]: 8 µM (≈ 8.02 µg/mL)
MIC [21]: 64 µM (≈ 64.1 µg/mL)

SMILES: CC[C@H](C)[C@H](NC(=O)[C@H](CC(C)C)NC(=O)[C@@H]1CCCN1C(=O)[C@H](CCCCN)NC(=O)[C@H](C)NC(=O)[C@@H](NC(=O)[C@@H](NC(=O)[C@H](CC(C)C)NC(=O)[C@@H](NC(=O)[C@H](CO)NC(=O)[C@@H](NC(=O)[C@H](CCCCN)NC(=O)[C@H](C)NC(=O)[C@H](CO)NC(=O)[C@@H](NC(=O)[C@H](CC(C)C)NC(=O)[C@H](CC(C)C)NC(=O)[C@H](CCCCN)NC(=O)[C@@H](NC(=O)[C@H](Cc1ccccc1)NC(=O)[C@H](CO)NC(=O)[C@H](CCCCN)NC(=O)[C@H](CCCCN)NC(=O)[C@@H](N)CCCCN)[C@@H](C)CC)[C@@H](C)O)C(C)C)C(C)C)[C@@H](C)O)[C@@H](C)O)C(=O)N[C@@H](CO)C(=O)N[C@@H](CO)C(=O)O [KKKSFIKLLTSAKVSVLTTAKPLISS]
MIC (Escherichia coli UB1005): 11.5 µM (≈ 32 µg/mL)
MIC [22]: 22.9 µM (≈ 64 µg/mL)
MIC [23]: 22.9 µM (≈ 64 µg/mL)
MIC [24]: 22.9 µM (≈ 64 µg/mL)
MIC [25]: 22.9 µM (≈ 64 µg/mL)
MIC [26]: 22.9 µM (≈ 64 µg/mL)
MIC [27]: 22.9 µM (≈ 64 µg/mL)

The next lines start with the values.

MIC [4]: ≥ 56.6 µM
MIC (Escherichia coli BL21AI): 3.54 µM (≈ 7.81 µg/mL)
MIC (Escherichia coli DC2): 3.54 µM (≈ 7.81 µg/mL)
MIC [5]: 1.77 µM (≈ 3.9 µg/mL)
MIC [6]: 14.2 µM (≈ 31.2 µg/mL)
MIC [7]: 0.109 µM (≈ 0.24 µg/mL)
SMILES: CC[C@H](C)[C@H](NC(=O)[C@H](Cc1ccc(O)cc1)NC(=O)[C@@H](NC(=O)[C@@H]1CCCN1C(=O)[C@H](CCCCN)NC(=O)[C@H](CC(N)=O)NC(=O)[C@H](CC(N)=O)NC(=O)CN)C(C)C)C(=O)N1CCC[C@H]1C(=O)N[C@@H](CCCN=C(N)N)C(=O)N1CCC[C@H]1C(=O)N[C@@H](CCCN=C(N)N)C(=O)N1CCC[C@H]1C(=O)N1CCC[C@H]1C(=O)N[C@@H](Cc1cnc[nH]1)C(=O)N1CCC[C@H]1C(=O)N[C@@H](CCCN=C(N)N)C(=O)N[C@@H](CC(C)C)C(=O)N[C@H](C(N)=O)C(C)C [GNNKPVYIPRPRPPHPRLV]

MIC (Escherichia coli UB1005): 1.43 µM (≈ 4 µg/mL)
MIC [22]: 2.85 µM (≈ 8 µg/mL)
MIC [23]: 11.4 µM (≈ 32 µg/mL)
MIC [24]: 5.71 µM (≈ 16 µg/mL)
MIC [25]: 22.8 µM (≈ 64 µg/mL)
MIC [26]: 11.4 µM (≈ 32 µg/mL)
MIC [27]: 15.3 µM (≈ 43 µg/mL)
SMILES: CC[C@H](C)[C@H](NC(=O)[C@H](CC(C)C)NC(=O)[C@H](C)NC(=O)[C@@H]1CCCN1C(=O)[C@H](CC(C)C)NC(=O)CNC(=O)[C@@H](NC(=O)[C@@H](NC(=O)[C@H](CC(C)C)NC(=O)[C@@H](NC(=O)[C@H](CCCCN)NC(=O)[C@H](CO)NC(=O)CNC(=O)CNC(=O)[C@H](CCCCN)NC(=O)[C@@H](NC(=O)[C@H](CC(C)C)NC(=O)[C@H](CC(N)=O)NC(=O)[C@H](CCCCN)NC(=O)[C@@H](NC(=O)[C@H](Cc1ccccc1)NC(=O)[C@H](CO)NC(=O)[C@H](CCCCN)NC(=O)[C@H](Cc1c[nH]c2ccccc12)NC(=O)[C@@H](N)CCCCN)[C@@H](C)CC)[C@@H](C)O)[C@@H](C)CC)[C@@H](C)O)[C@@H](C)O)C(=O)N[C@@H](CO)C(=O)O [KWKSFIKNLTKGGSKILTTGLPALIS]

MIC [28]: 10 µM (≈ 50.3 µg/mL)
MIC [12]: 5 µM (≈ 25.1 µg/mL)
MIC [29]: 0.6 µM (≈ 3.02 µg/mL)
MIC [30]: 0.3 µM (≈ 1.51 µg/mL)
MIC (Serratia rubidaea X01): 10 µM (≈ 50.3 µg/mL)
MIC [31]: 0.6 µM (≈ 3.02 µg/mL)
MIC [32]: 1.3 µM (≈ 6.54 µg/mL)
SMILES: CC[C@H](C)[C@H](NC(=O)CNC(=O)[C@H](CCCCN)NC(=O)[C@@H](NC(=O)[C@H](CC(C)C)NC(=O)CNC(=O)[C@H](CC(N)=O)NC(=O)[C@H](CCCCN)NC(=O)[C@@H](NC(=O)[C@H](Cc1c[nH]c2ccccc12)NC(=O)[C@H](CO)NC(=O)CNC(=O)[C@H](CCCCN)NC(=O)CNC(=O)[C@H](CCCCN)NC(=O)[C@H](CCCCN)NC(=O)[C@H](Cc1ccccc1)NC(=O)[C@H](CO)NC(=O)[C@@H](NC(=O)[C@@H](N)CCCN=C(N)N)[C@@H](C)CC)[C@@H](C)CC)[C@@H](C)CC)C(=O)N[C@@H](CCCCN)C(=O)NCC(=O)N[C@@H](CC(C)C)C(=O)NCC(=O)N[C@@H](CCCCN)C(=O)N[C@@H](CCC(=O)O)C(=O)N[C@H](C(=O)N[C@@H](CO)C(=O)N[C@@H](CC(C)C)C(=O)N[C@@H](CC(=O)O)C(=O)N[C@H](C(=O)N[C@H](C(=O)N[C@@H](CCCN=C(N)N)C(=O)N[C@H](C(=O)NCC(=O)N[C@H](C(=O)N[C@@H](CC(=O)O)C(=O)N[C@H](C(=O)N[C@@H](C)C(=O)NCC(=O)N[C@H]1CSSC[C@@H](C(=O)O)NC(=O)[C@H](CCC(=O)O)NC(=O)CNC(=O)[C@H](CCCCN)NC(=O)[C@H]([C@@H](C)CC)NC(=O)[C@H](CCCCN)NC1=O)[C@@H](C)CC)[C@@H](C)CC)[C@@H](C)O)[C@@H](C)CC)C(C)C)[C@@H](C)CC [RISFKKGKGSWIKNGLIKGIKGLGKEISLDVIRTGIDIAGCKIKGEC]

MIC [8]: ≥ 128 µM
MIC [9]: ≥ 128 µM
MIC [10]: 128 µM (≈ 139 µg/mL)
MIC [11]: 8 µM (≈ 8.69 µg/mL)
MIC (Escherichia coli 780): ≥ 64 µM
MIC (Escherichia coli 804): ≥ 64 µM
MIC [13]: 64 µM (≈ 69.5 µg/mL)
MIC [14]: ≥ 64 µM
MIC [15]: ≥ 128 µM
MIC [16]: 64 µM (≈ 69.5 µg/mL)
MIC [17]: 64 µM (≈ 69.5 µg/mL)
MIC [18]: ≥ 32 µM
MIC (Staphylococcus aureus 75): ≥ 32 µM
MIC [20]: 32 µM (≈ 34.8 µg/mL)
MIC [21]: 8 µM (≈ 8.69 µg/mL)
SMILES: CC(C)[C@H](N)C(=O)N[C@@H](CCCN=C(N)N)C(=O)N[C@@H](Cc1c[nH]c2ccccc12)C(=O)N[C@@H](Cc1c[nH]c2ccccc12)C(=O)N[C@@H](Cc1c[nH]c2ccccc12)C(=O)N[C@@H](CCCN=C(N)N)C(=O)N[C@H](C(N)=O)C(C)C [VRWWWRV]

— DBAASP
